Each molecule was assayed against T1, glucocorticoid receptor (Homo sapiens, UniProt P04150) (assay: Ligand binding assay (GRBind), 3H-dexamethasone displacement in HeLa cell lysate). Details: 3H-DEX tracer.
T1 construct: endogenous in cells; host or cells: HeLa (ATCC) cell lysate supernatant
T1 sequence (P04150 1-777): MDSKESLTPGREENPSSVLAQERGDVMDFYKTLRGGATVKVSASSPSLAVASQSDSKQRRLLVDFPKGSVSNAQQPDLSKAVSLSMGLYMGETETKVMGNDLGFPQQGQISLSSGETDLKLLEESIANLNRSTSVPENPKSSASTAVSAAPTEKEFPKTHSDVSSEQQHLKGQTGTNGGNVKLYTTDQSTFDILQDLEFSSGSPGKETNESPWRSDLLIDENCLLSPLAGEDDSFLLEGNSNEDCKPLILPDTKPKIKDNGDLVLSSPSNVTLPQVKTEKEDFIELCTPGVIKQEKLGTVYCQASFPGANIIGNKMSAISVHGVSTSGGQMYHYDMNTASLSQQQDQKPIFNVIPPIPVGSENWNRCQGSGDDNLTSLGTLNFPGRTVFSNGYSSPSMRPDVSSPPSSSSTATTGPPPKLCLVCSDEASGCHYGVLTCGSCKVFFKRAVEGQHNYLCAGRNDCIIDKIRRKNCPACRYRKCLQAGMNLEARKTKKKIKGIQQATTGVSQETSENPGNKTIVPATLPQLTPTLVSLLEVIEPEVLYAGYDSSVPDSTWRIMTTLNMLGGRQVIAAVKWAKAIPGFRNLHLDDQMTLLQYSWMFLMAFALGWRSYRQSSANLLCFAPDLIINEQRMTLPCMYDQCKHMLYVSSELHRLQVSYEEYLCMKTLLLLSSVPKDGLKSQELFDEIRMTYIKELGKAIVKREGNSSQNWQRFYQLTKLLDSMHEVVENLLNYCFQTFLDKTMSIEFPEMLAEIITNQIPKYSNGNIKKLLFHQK
Procedure, shortened: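 Cytosolic supernatant from HeLa cells in TEGM buffer (pH 7.2, with molybdate) was incubated overnight at 4 °C with 3H-dexamethasone (6 nM trace solution) and serially diluted compound, with 2% ethanol. Bound receptor was captured on hydroxylapatite, filtered and counted by scintillation. IC50s were calculated using dexamethasone as reference.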
`NC(=O)c1c(C(F)(F)F)ccnc1CC[C@]1(O)CCC2=Cc3c(cnn3-c3ccc(F)cc3)C[C@@]21C1CC1` [Example 55, 2-{2-[(4aR,5R)-4a-Cyclopropyl-1-(4-fluorophenyl)-5-hydroxy-1,4,4a,5,6,7-hexahydrocyclopenta[f]indaozol-5-yl]ethyl}-4-(trifluoromethyl)pyridine-3-carboxamide] gave a Ki of 2.24 nM.
Work on `NC(=O)Cc1ccccc1CC[C@]1(O)CCC2=Cc3c(cnn3-c3ccc(F)cc3)C[C@@]21C1CC1` [Example 56, 2-(2-{2-[(4aR,5S)-4a-Cyclopropyl-1-(4-fluorophenyl)-5-hydroxy-1,4,4a,5,6,7-hexahydrocyclopenta[f]indazol-5-yl]ethyl}phenyl)acetamide] yielded a Ki of 1.61 nM.
In the case of `NC(=O)[C@H](F)c1c(F)cccc1CC[C@]1(O)CCC2=Cc3c(cnn3-c3ccc(F)cc3)C[C@@]21C1CC1` [Example 57, (2R)-2-(2-{2-[(4aR,5R)-4a-Cyclopropyl-1-(4-fluorophenyl)-5-hydroxy-1,4,4a,5,6,7-hexahydrocyclopenta[f]indazol-5-yl]ethyl}-6-fluorophenyl)-2-fluoroethanamide], the Ki is reported as 1.5 nM.
With `CS(=O)(=O)c1ccccc1CC[C@]1(O)CCC2=Cc3c(cnn3-c3ccc(F)cc3)C[C@@]21C1CC1` [Example 58, (4aR,5R)-4a-Cyclopropyl-1-(4-fluorophenyl)-5-{2-[2-(methylsulfonyl)phenyl]ethyl}-1,4,4a,5,6,7-hexahydrocyclopenta[f]indazol-5-ol] the Ki was 0.88 nM.
For `CCS(=O)(=O)c1ccccc1CC[C@]1(O)CCC2=Cc3c(cnn3-c3ccc(F)cc3)C[C@@]21C1CC1` [Example 59, (4aR,5R)-4a-Cyclopropyl-5-{2-[2-(ethylsulfonyl)phenyl]ethyl}-1-(4-fluorophenyl)-1,4,4a,5,6,7-hexahydrocyclopenta[f]indazol-5-ol], the Ki was 1.36 nM.
`CC[C@]12Cc3cnn(-c4ccc(F)cc4)c3C=C1CC[C@@]2(O)CCc1cccc(F)c1CC(N)=O` [Example 60, 2-(2-{2-[(4aS,5R)-4a-Ethyl-1-(4-fluorophenyl)-5-hydroxy-1,4,4a,5,6,7-hexahydrocyclopenta[f]indazol-5-yl]ethyl}-6-fluorophenyl)acetamide] showed a Ki of 2.33 nM.
With `NC(=O)Cc1c(F)cccc1CC[C@]1(O)CCC2=Cc3c(cnn3-c3ccc(F)cc3)C[C@@]21C1CC1` [Example 61, 2-(2-{2-[(4aR,5R)-4a-Cyclopropyl-1-(4-fluorophenyl)-5-hydroxy-1,4,4a,5,6,7-hexahydrocyclopenta[f]indazol-5-yl]ethyl}-6-fluorophenyl)acetamide] the Ki was 2.08 nM.
`CC[C@]12Cc3cnn(-c4ccc(F)cc4)c3C=C1CC[C@@]2(O)CCc1ncccc1S(=O)(=O)C(C)C` [Example 62, (4aS,5R)-4a-Ethyl-1-(4-fluorophenyl)-5-{2-[3-(propan-2-ylsulfonyl)pyridin-2-yl]ethyl}-1,4,4a,5,6,7-hexahydrocyclopenta[f]indazol-5-ol] was tested, and the Ki was 4.06 nM.
`O=S(=O)(c1ccccc1CC[C@]1(O)CCC2=Cc3c(cnn3-c3ccc(F)cc3)C[C@@]21C1CC1)C1CC1` [Example 63, (4aR,5R)-4a-Cyclopropyl-5-{2-[2-(cyclopropylsulfonyl)phenyl]ethyl}-1-(4-fluorophenyl)-1,4,4a,5,6,7-hexahydrocyclopenta[f]indazol-5-ol] showed a Ki of 1.69 nM.
In the case of `CC[C@]12Cc3cnn(-c4ccc(F)cc4)c3C=C1CC[C@@]2(O)CCc1nccc(OC)c1CC(N)=O` [Example 64, 2-(2-{2-[(4aS,5R)-4a-Ethyl-1-(4-fluorophenyl)-5-hydroxy-1,4,4a,5,6,7-hexahydrocyclopenta[f]indazol-5-yl]ethyl}-4-methoxypyridin-3-yl)acetamide], the Ki is reported as 11.5 nM.
For `CC[C@]12Cc3cnn(-c4ccc(F)cc4)c3C=C1CC[C@@]2(O)CCc1nccc(OC)c1C(F)C(N)=O` (stereo partly drawn) [Example 65, 2-(2-{2-[(4aS,5R)-4a-Ethyl-1-(4-fluorophenyl)-5-hydroxy-1,4,4a,5,6,7-hexahydrocyclopenta[f]indazol-5-yl]ethyl}-4-methoxypyridin-3-yl)-2-fluoroacetamide], the Ki was 9.2 nM.
For `COc1ccnc(CC[C@]2(O)CCC3=Cc4c(cnn4-c4ccc(F)cc4)C[C@@]32C2CC2)c1C(F)C(N)=O` (stereo partly drawn) [Example 66, 2-(2-{2-[(4aR,5R)-4a-Cyclopropyl-1-(4-fluorophenyl)-5-hydroxy-1,4,4a,5,6,7-hexahydrocyclopenta[f]indazol-5-yl]ethyl}-4-methoxypyridin-3-yl)-2-fluoroacetamide], the Ki was 1.82 nM.
`CC[C@]12Cc3cnn(-c4ccc(F)cc4)c3C=C1CC[C@@]2(O)CC(O)c1ccccn1` (stereo partly drawn) [Example 68, (4aS,5R)-4a-Ethyl-1-(4-fluorophenyl)-5-[2-hydroxy-2-(pyridin-2-yl)ethyl]-1,4,4a,5,6,7-hexahydrocyclopenta[f]indazol-5-ol] was tested, and the Ki was 2.72 nM.
With `CC[C@]12Cc3cnn(-c4ccc(F)cc4)c3C=C1CC[C@@]2(O)CC(O)c1ncccc1Cl` (stereo partly drawn) [Example 70, (4aS,5R)-5-[2-(3-Chloropyridin-2-yl)-2-hydroxyethyl]-4a-ethyl-1-(4-fluorophenyl)-1,4,4a,5,6,7-hexahydrocyclopenta[f]indazol-5-ol] the Ki was 7.06 nM.
For `CC[C@]12Cc3cnn(-c4ccc(F)cc4)c3C=C1CC[C@@]2(O)CC1OC(=O)c2ccccc21` (stereo partly drawn) [Example 71, 3-{[(4aS,5R)-4a-Ethyl-1-(4-fluorophenyl)-5-hydroxy-1,4,4a,5,6,7-hexahydrocyclopenta[f]indazol-5-yl]methyl}-2-benzofuran-1(3H)-one], the Ki was 2.97 nM.
In the case of `CC[C@]12Cc3cnn(-c4ccc(F)cc4)c3C=C1CC[C@@]2(O)CC(O)c1cc(C#N)ccn1` (stereo partly drawn) [Example 72, 2-{2-[(4aS,5R)-4a-Ethyl-1-(4-fluorophenyl)-5-hydroxy-1,4,4a,5,6,7-hexahydrocyclopenta[f]indazol-5-yl]-1-hydroxyethyl}pyridine-4-carbonitrile], the Ki is reported as 6.25 nM.
`CC[C@]12Cc3cnn(-c4ccc(F)cc4)c3C=C1CC[C@@]2(O)CC(O)c1cncc(F)c1` (stereo partly drawn) [Example 73, (4aS,5R)-4a-Ethyl-1-(4-fluorophenyl)-5-[2-(5-fluoropyridin-3-yl)-2-hydroxyethyl]-1,4,4a,5,6,7-hexahydrocyclopenta[f]indazol-5-ol] was tested, and the Ki was 5.67 nM.
With `CC[C@]12Cc3cnn(-c4ccc(F)cc4)c3C=C1CC[C@@]2(O)CC(O)c1c(F)ccnc1Cl` (stereo partly drawn) [Example 74, (4aS,5R)-5-[2-(2-Chloro-4-fluoropyridin-3-yl)-2-hydroxyethyl]-4a-ethyl-1-(4-fluorophenyl)-1,4,4a,5,6,7-hexahydrocyclopenta[f]indazol-5-ol] the Ki was 9.35 nM.
`CC[C@]12Cc3cnn(-c4ccccc4)c3C=C1CC[C@@]2(O)CC(O)c1cc(C#N)ccn1` (stereo partly drawn) [Example 75, 2-{2-[(4aS,5R)-4a-Ethyl-5-hydroxy-1-phenyl-1,4,4a,5,6,7-hexahydrocyclopenta[f]indazol-5-yl]-1-hydroxyethyl}pyridine-4-carbonitrile] gave a Ki of 2.97 nM.
Work on `CC[C@]12Cc3cnn(-c4ccc(F)cc4)c3C=C1CC[C@@]2(O)CC(O)c1ncccc1F` (stereo partly drawn) [Example 76, (4aS,5R)-4a-Ethyl-1-(4-fluorophenyl)-5-[2-(3-fluoropyridin-2-yl)-2-hydroxyethyl]-1,4,4a,5,6,7-hexahydrocyclopenta[f]indazol-5-ol] yielded a Ki of 20.8 nM.
For `CC[C@]12Cc3cnn(-c4ccc(F)cc4)c3C=C1CC[C@@]2(O)CC(O)c1ncccc1F` (stereo partly drawn) [Example 77, (4aS,5R)-4a-Ethyl-1-(4-fluorophenyl)-5-[2-(3-fluoropyridin-2-yl)-2-hydroxyethyl]-1,4,4a,5,6,7-hexahydrocyclopenta[f]indazol-5-ol], the Ki was 4.39 nM.
`OC(C[C@]1(O)CCC2=Cc3c(cnn3-c3ccc(F)cc3)C[C@@]21C1CC1)c1ccccn1` (stereo partly drawn) [Example 78, (4aR,5R)-4a-Cyclopropyl-1-(4-fluorophenyl)-5-[2-hydroxy-2-(pyridin-2-yl)ethyl]-1,4,4a,5,6,7-hexahydrocyclopenta[f]indazol-5-ol] was tested, and the Ki was 2.96 nM.
